Tests used:
[1] = Liver microsomal clearance test, mice; type: in vitro ADME; settings: Mice liver microsomes, 0.5 mg/mL, NADPH
Procedure: (§1) Test 3 Liver Microsomal Clearance Test
(§2) 1. Prepare 0.5 mg/mL liver microsome diluent containing K-butter and MgCl2:
(§3) 2.1 Take 356 μL of the liver microsome diluent prepared above and add it to the preset wells of the incubation plate, the number of multiple wells n=1, mark it as the incubation plate.
(§4) 2.2 Take 4 μL of the positive control compound Verapamil (50 μM) and the working solution of the test compound (200 μM) into the above incubation plate containing 356 μL of liver microsome diluent, and mix well (The dilution solvent from the stock solution to the working solution is a mixed solvent of acetonitrile: methanol: water=1:1:2, and the final concentration of DMSO is ≤0.5%),
(§5) 2.3 Place the incubation plate in a 37° C. thermostatic oscillator (at shaking speed of 100 rpm) for pre-incubation with 10 min.
(§6) 2.4 Add 40 μL of 10 mM NADPH (add 40 μL of K-buffer to the wells without NADPH) to each reaction well to start the reaction and start timing.
(§7) 3. Sample collection and treatment:
(§8) 3.1 After adding NADPH to start the reaction, immediately take out 50 μL of the sample and add it to the precipitation plate pre-added with 400 μL of stop solution, and shake on an oscillator at 600 rpm for 5 min at room temperature as a 0 min sample.
(§9) 3.2 At the predetermined time points of 5 min, 15 min and 45 min, take out 50 μL of sample from the incubation plate and add it to the precipitation plate. The subsequent steps were the same as the treatment of 0 min sample. 3.3 After balancing, centrifuge above precipitation plate at 3200 rpm for 10 min at 4° C.
(§10) 3.4 Take 50 μL of the supernatant after centrifugation and add it to pre-added 20% acetonitrile water at appropriate proportion, shake on an oscillator at 600 rpm for 2 min at room temperature, mix well, and put it into the LC-MS/MS sampler for sample injection.
(§11) Analysis of Experimental Data
1. […]

[2] = Liver microsomal clearance test, rat; type: in vitro ADME; settings: Rat liver microsomes, 0.5 mg/mL, NADPH
Procedure: as §1, §2, §3, §4, §5, §6, §7, §8, §9, §10, §11
1. […]

[3] = target: Ba/F3-Δ19del/T790M/C797S (Homo sapiens, UniProt P00533, T790M/C797S, cells depend on it, form not given); experiment: Ba/F3-Δ19del/T790M/C797S cell proliferation assay (CellTiter Glo, 72 h); type: cell-based; settings: CTG, numeric values, read-out: BaF3 Δ19del/T790M/C797S IC50
Sequence of Ba/F3-Δ19del/T790M/C797S (P00533 with tags, fused parts or gaps DEL746-750/T790M/C797S, form open): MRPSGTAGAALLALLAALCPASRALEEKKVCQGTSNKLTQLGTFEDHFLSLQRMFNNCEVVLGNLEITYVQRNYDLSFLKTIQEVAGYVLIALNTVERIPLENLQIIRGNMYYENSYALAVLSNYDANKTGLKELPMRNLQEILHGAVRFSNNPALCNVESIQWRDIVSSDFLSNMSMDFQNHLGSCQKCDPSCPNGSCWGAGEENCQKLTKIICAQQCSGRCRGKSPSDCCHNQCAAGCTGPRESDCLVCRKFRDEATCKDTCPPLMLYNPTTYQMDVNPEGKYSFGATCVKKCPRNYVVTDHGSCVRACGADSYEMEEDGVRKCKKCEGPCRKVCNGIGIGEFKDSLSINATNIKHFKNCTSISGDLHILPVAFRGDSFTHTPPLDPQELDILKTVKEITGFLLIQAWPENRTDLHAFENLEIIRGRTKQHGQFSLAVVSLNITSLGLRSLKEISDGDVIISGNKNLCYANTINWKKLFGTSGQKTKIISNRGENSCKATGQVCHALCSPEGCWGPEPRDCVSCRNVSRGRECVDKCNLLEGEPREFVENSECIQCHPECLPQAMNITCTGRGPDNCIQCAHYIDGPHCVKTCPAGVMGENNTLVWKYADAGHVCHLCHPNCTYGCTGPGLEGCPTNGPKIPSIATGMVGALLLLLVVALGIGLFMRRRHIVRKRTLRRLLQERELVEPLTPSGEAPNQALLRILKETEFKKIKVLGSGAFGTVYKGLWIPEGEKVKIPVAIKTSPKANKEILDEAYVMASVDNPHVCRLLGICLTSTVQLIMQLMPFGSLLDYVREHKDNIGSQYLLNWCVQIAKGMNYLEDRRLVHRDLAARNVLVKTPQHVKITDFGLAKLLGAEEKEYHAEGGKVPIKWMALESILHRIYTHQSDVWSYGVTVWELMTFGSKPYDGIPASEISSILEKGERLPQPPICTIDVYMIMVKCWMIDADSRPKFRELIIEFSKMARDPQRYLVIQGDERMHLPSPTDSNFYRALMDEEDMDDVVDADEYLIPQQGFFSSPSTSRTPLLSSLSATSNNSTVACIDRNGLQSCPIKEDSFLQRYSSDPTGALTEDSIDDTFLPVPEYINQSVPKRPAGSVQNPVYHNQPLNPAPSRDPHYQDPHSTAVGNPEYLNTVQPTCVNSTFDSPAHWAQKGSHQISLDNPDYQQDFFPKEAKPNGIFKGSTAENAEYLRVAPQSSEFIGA
How it was run: (§12)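 Cells seeded at 2000/well and exposed 72 h to compound at 1000 to 0.2 nM (0.1% DMSO). Viability read by CellTiter-Glo luminescence; IC50 from four-parameter nonlinear regression of signal vs. log concentration.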

[4] = system: A431 EGFR wild-type cell line; experiment: A431 EGFR wild-type cell proliferation assay (CellTiter Glo, 72 h); type: cell-based; settings: Homo sapiens, A-431, CTG, read-out: A431 EGFR WT IC50
How it was run: as §12

Instrinsic clearance of liver microsomal protein, CLint [1]: 6.6 μL/min/mg proteins
Instrinsic clearance of liver microsomal protein, CLint [2]: 4 μL/min/mg proteins
GI50 [3]: 2.1 nM
IC50 [4]: 112 nM
SMILES: COc1cc(N2CCC(N3CCN(C)CC3)CC2)c(-c2cnn(C)c2)cc1Nc1ncc(Cl)c(Nc2ccc3nccnc3c2P(C)(C)=O)n1 [Compound 1, (6-((5-Chloro-2-((2-methoxy-5-(1-methyl-1hydro-pyrazol-4-yl)-4-(4-(4-methylpiperazine-1-yl)piperidin-1-yl)phenyl)amino)pyrimidin-4-yl)amino)quinoxalin-5-yl)dimethylphosphine oxide]

Source: patent US20220259235A1, “EGFR Inhibitor, Composition, and Preparation Method Therefor” (BETTA PHARMACEUTICALS CO., LTD, priority 2019, published 2022)
